Data: patent US20230109839A1, “THERAPEUTIC AGENT FOR TAUOPATHIES” (SUMITOMO PHARMA CO., LTD., priority 2020, published 2023)

Target: T1, human Nav1.1 (Homo sapiens, UniProt P35498)
T1 construct: host or cells: HEK293
Experiment: Amplification of Nav1.1-derived voltage-gated sodium current (Nav1.1 current), automated patch clamp (Test 1)
Type: cell-based
Conditions: Concentration for evaluation 1 μM; HEK293 cell line stably expressing human Nav1.1
Outline: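 HEK293 cells stably expressing human Nav1.1, restricted to cells with >500 pA current, were recorded by automated voltage-clamp patch clamp with a ramp voltage stimulus. Compounds were applied in HEPES-buffered extracellular solution with 1% DMSO. Amplification (%) = 100×(peak or AUC after/before compound)−100.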

SMILES | Nav1.1 current amplification rate (%)
CC1CC=C(c2ccc(=O)n(CC(=O)Nc3cncc(C4=CCOC4)c3)n2)CC1 (stereo not drawn) [Example 381] | 153%
CN(CCC1CC1)c1cnc2cnn(CC(=O)Nc3ccc4cncnc4c3)c2n1 [Example 647] | 165%
CN(CC1(C)CC1)c1cnc2cnn(CC(=O)Nc3ccn4ncnc4c3)c2n1 [Example 639] | 100%
CC1(C)CC=C(c2cnc3cnn(CC(=O)Nc4ccc5ncnn5c4)c3n2)CC1 [Example 649] | 91%
CN(c1cnc2cnn(CC(=O)Nc3ccc(Cl)nc3)c2n1)C1CC1 [Example 722] | 35%
CN(c1cnc2cnn(CC(=O)N3CCc4c(C5CN(C(=O)CO)C5)cccc43)c2n1)C1CCC1 [Example 696] | 306%
CN(c1cnc2cnn(CC(=O)N3CCc4c(-c5ccnn5C)cccc43)c2n1)C1CCC1 [Example 693] | 13%
CC1CC=C(c2ccc(=O)n(CC(=O)Nc3ccc4c(cnn4C)c3)n2)CC1 (stereo not drawn) [Example 336] | 68%
CC(=O)N1CC=C(c2nccc3c2CCN3C(=O)Cn2nc(C3=CCC(C)CC3)ccc2=O)C1 (stereo not drawn) [Example 310] | 87%
CC1CC=C(c2ccc(=O)n(CC(=O)Nc3ccc4nccn4n3)n2)CC1 (stereo not drawn) [Example 346] | 96%
CC1CC=C(c2ccc(=O)n(CC(=O)Nc3ccc4cncnc4c3)n2)CC1 (stereo not drawn) [Example 356] | 378%
CC1CC=C(c2ccc(=O)n(CC(=O)Nc3cnc4nccn4c3)n2)CC1 (stereo not drawn) [Example 337] | 52%
Cc1cc(NC(=O)Cn2ncc3ncc(N(C)C4CCC4)nc32)cc2ncnn12 [Example 687] | 67%
CN(c1cnc2cnn(CC(=O)Nc3ccc4cnnn4c3)c2n1)C1CCCC1 [Example 679] | 63%
CC1=CCN(c2ncc3cnn(CC(=O)Nc4ccn5ncnc5c4)c3n2)CC1 [Example 784] | 45%
CN(c1cnc2cnn(CC(=O)Nc3ccc(C#N)nc3)c2n1)C1CCCC1 [Example 683] | 63%
Cc1cc(NC(=O)Cn2ncc3ncc(N(C)C4CCCC4)nc32)cc2nccn12 [Example 684] | 39%
CN(c1cnc2cnn(CC(=O)N3CCc4c(CN5CC=CC5)cccc43)c2n1)C1CC1 [Example 720] | 230%

Same assay, conditions: Concentration for evaluation 3 μM; HEK293 cell line stably expressing human Nav1.1

SMILES | Nav1.1 current amplification rate (%)
CC1CC=C(c2ccc(=O)n(CC(=O)N3CCc4c(C5CN(C)C5)cccc43)n2)CC1 (stereo not drawn) [Example 300] | 140%
CC1CC=C(c2ccc(=O)n(CC(=O)N3CCc4c(C5=CCN(C)C5)cccc43)n2)CC1 (stereo not drawn) [Example 267] | 231%
CC1CC=C(c2ccc(=O)n(CC(=O)N3CCc4c(C5CN(C6CCOC6)C5)cccc43)n2)CC1 (stereo not drawn) [Example 305] | 314%
CC1(C)CC=C(c2ccc(=O)n(CC(=O)N3CCc4c(C5CN(C6COC6)C5)cccc43)n2)CC1 [Example 438] | 404%
COCc1nc2cc(NC(=O)Cn3nc(C4=CCC(C)CC4)ccc3=O)ccc2o1 (stereo not drawn) [Example 325] | 233%

Same assay, conditions: Concentration for evaluation 10 μM; HEK293 cell line stably expressing human Nav1.1

SMILES | Nav1.1 current amplification rate (%)
CC1CC=C(c2ccc(=O)n(CC(=O)Nc3ccnc(-c4cnn(C)c4)c3)n2)CC1 (stereo not drawn) [Example 379] | 147%
CN(c1cnc2cnn(CC(=O)Nc3ccc4ncccc4n3)c2n1)C1CC1 [Example 725] | 51%
CC1CC=C(c2ccc(=O)n(CC(=O)Nc3cc(F)c4ocnc4c3)n2)CC1 (stereo not drawn) [Example 241] | 260%
N#Cc1ccc(NC(=O)Cn2nc(N3CCC4(CCCC4)C3)ccc2=O)cc1 [Example 24] | 286%
CC1CC=C(c2ccc(=O)n(CC(=O)N3CCc4cc(N5CCOCC5)ccc43)n2)CC1 (stereo not drawn) [Example 246] | 136%
CC1CC=C(c2ccc(=O)n(CC(=O)Nc3ccc(CO)nc3)n2)CC1 (stereo not drawn) [Example 376] | 44%
COc1cc(=O)n(CC(=O)Nc2ccc3ocnc3c2)nc1C1=CCC(C(F)(F)F)CC1 (racemic) [Example 450] | 187%
CC1CC=C(c2ccc(=O)n(CC(=O)N3CC=C(c4nccc5occc45)CC3)n2)CC1 (stereo not drawn) [Example 404] | 42%
N#Cc1ccc(NC(=O)Cn2nc(N3CCC4(CCC4)C3)ccc2=O)cc1 [Example 34] | 311%
CCCCN(C)c1ccc(=O)n(CC(=O)Nc2ccc(C#N)cc2)n1 [Example 30] | 77%
O=C(Cn1nc(-c2ccc(C(F)(F)F)nc2)ccc1=O)Nc1ccc2ocnc2c1 [Example 453] | 15%
CC1CCN(c2ccc(=O)n(CC(=O)Nc3cccc(-c4ncco4)c3)n2)CC1 [Example 78] | 78%
O=C(Cn1nc(C2=CCC(C(F)(F)F)CC2)ccc1=O)Nc1ccc2ocnc2c1 (racemic) [Example 446] | 333%
CC1CCC(c2ccc(=O)n(CC(=O)N3CCc4c(N5CCOCC5)cccc43)n2)CC1 (mixture of isomers) [Example 472] | 387%
CC1CC=C(c2ccc(=O)n(CC(=O)Nc3ccn4ccnc4n3)n2)CC1 (stereo not drawn) [Example 242] | 97%
CC1(C)CC=C(c2ccc(=O)n(CC(=O)N3CCc4c(N5CCOCC5)cccc43)n2)C1 [Example 475] | 633%
CC1CC=C(c2ccc(=O)n(CC(=O)N3CCC(c4ccccc4)CC3)n2)CC1 (stereo not drawn) [Example 256] | 36%
CC1CCN(c2ccc(=O)n(CC(=O)Nc3ccnc(N(C)C)c3)n2)CC1 [Example 57] | 48%
COc1cc(C2=CCC(C)CC2)nn(CC(=O)N2CCc3c(N4CCOCC4)cccc32)c1=O (stereo not drawn) [Example 473] | 487%
CC1(C)CCC=C(c2ccc(=O)n(CC(=O)Nc3ccc(C#N)cc3)n2)C1 [Example 45] | 202%
CC1CCN(c2ccc(=O)n(CC(=O)Nc3ccnc(N4CCOCC4)c3)n2)CC1 [Example 66] | 49%
O=C(Cn1nc(-c2cc(Cl)cs2)ccc1=O)Nc1ccc2ocnc2c1 [Example 454] | 157%
CC1CC=C(c2ccc(=O)n(CC(=O)N3CCN(Cc4ccncc4)CC3)n2)CC1 (stereo not drawn) [Example 392] | 53%
CC1CCN(c2ccc(=O)n(CC(=O)Nc3ccc4oc(=O)n(C)c4c3)n2)CC1 [Example 81] | 69%
Cc1nc2ccc(NC(=O)Cn3nc(N4CCC(C)CC4)ccc3=O)cc2o1 [Example 68] | 42%
CC1CC=C(c2ccc(=O)n(CC(=O)N3CCN(c4ccncc4)CC3)n2)CC1 (stereo not drawn) [Example 261] | 60%
N#Cc1ccc(NC(=O)Cn2nc(N3CCCCC3)ccc2=O)cc1 [Example 3] | 40%

Same assay, conditions: Concentration for evaluation 50 μM; HEK293 cell line stably expressing human Nav1.1

SMILES | Nav1.1 current amplification rate (%)
Cc1nc(N2CCN(C(=O)Cn3nc(C4=CCC(C)CC4)ccc3=O)CC2)no1 (stereo not drawn) [Example 406] | 68%
Cc1cc2nc(NC(=O)Cn3nc(C4=CCC(C)CC4)ccc3=O)ccn2n1 (stereo not drawn) [Example 340] | 41%
COc1cccc(F)c1-c1ncc2cnn(CC(=O)Nc3ccn4ncnc4c3)c2n1 [Example 791] | 14%

Same assay, conditions: HEK293, Concentration for evaluation 1 μM; HEK293 cell line stably expressing human Nav1.1; read-out: Nav1.1 current amplification rate (%)

SMILES | activation at 1 µM
O=C(Cn1ncc2ncc(N3CCC4(CC4)C(F)(F)C3)nc21)Nc1ccc(-n2ccnc2)nc1 [Example 747] | 73%
CN(c1cnc2cnn(CC(=O)Nc3cnc4cccnc4c3)c2n1)C1CC(C)(C)C1 [Example 755] | 245%
N#Cc1ccc(NC(=O)Cn2ncc3ncc(N4CCC5(CC5)C(F)(F)C4)nc32)nc1 [Example 757] | 10%

Same assay, conditions: HEK293, Concentration for evaluation 10 μM; HEK293 cell line stably expressing human Nav1.1; read-out: Nav1.1 current amplification rate (%)

SMILES | activation at 10 µM
O=C(Cn1nc(N2CCCCC2)ccc1=O)Nc1ccc(C(F)(F)F)nc1 [Example 104] | 11%

Same assay, conditions: HEK293, concentration for evaluation 1 μM; HEK293 stably expressing human Nav1.1; read-out: Nav1.1 current amplification rate (%)

SMILES | activation at 1 µM
Cc1cc(NC(=O)Cn2ncc3cnc(N(C)C4CCCC4(F)F)nc32)cc2ncnn12 (stereo not drawn) [Example 839] | 143%

Same assay, conditions: concentration for evaluation 1 μM; HEK293 stably expressing human Nav1.1

SMILES | Nav1.1 current amplification rate (%)
O=C(Cn1ncc2ccc(-c3ccc(F)cc3F)nc21)Nc1ccn2ccnc2c1 [Example 865] | 14%
CC1CCN(c2ccc3cnn(CC(=O)Nc4ccc5cnnn5c4)c3n2)CC1 [Example 878] | 42%
CC(C)CN(C)c1ccc2cnn(CC(=O)Nc3ccn4ncnc4c3)c2n1 [Example 861] | 78%
N#Cc1ncc(NC(=O)Cn2ncc3cnc(N4CCC5(CC5)C(F)(F)C4)nc32)cn1 [Example 827] | 29%
O=C(Cn1ncc2cnc(N3CCC4(CCC4)CC3)nc21)Nc1ccc2cncnc2c1 [Example 808] | 226%
